# Results taken from PubChem BioAssay (NCI).
#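 Protocol summary: plate cells (96-well), add compound at 5 concentrations, incubate 48 h, interpolate endpoints linearly. TGI: concentration producing complete growth inhibition.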
# Assays:
# Experiment in all cases: NCI tumour cell line growth inhibition, 48 h
# [1] = system: A498 renal
# [2] = system: A549 NSCLC
# [3] = system: CAKI-1 renal
# [4] = system: CCRF-CEM leukemia
# [5] = system: COLO 205 colon
# [6] = system: DLD-1 colon
# [7] = system: DMS 114 small cell lung
# [8] = system: DMS 273 small cell lung
# [9] = system: EKVX NSCLC
# [10] = system: HCC-2998 colon
# [11] = system: HCT-116 colon
# [12] = system: HCT-15 colon
# [13] = system: HL-60(TB) leukemia
# [14] = system: HOP-18 NSCLC
# [15] = system: HOP-62 NSCLC
# [16] = system: HOP-92 NSCLC
# [17] = system: HT29 colon
# [18] = system: IGROV1 ovarian
# [19] = system: K-562 leukemia
# [20] = system: KM12 colon
# [21] = system: KM20L2 colon
# [22] = system: LOX IMVI melanoma
# [23] = system: M19-MEL melanoma
# [24] = system: MALME-3M melanoma
# [25] = system: MCF7 breast
# [26] = system: MOLT-4 leukemia
# [27] = system: NCI-H226 lung
# [28] = system: NCI-H23 lung
# [29] = system: NCI-H460 lung
# [30] = system: NCI-H522 lung
# [31] = system: NCI/ADR-RES ovarian
# [32] = system: OVCAR-3 ovarian
# [33] = system: OVCAR-4 ovarian
# [34] = system: OVCAR-5 ovarian
# [35] = system: OVCAR-8 ovarian
# [36] = system: P388 leukemia
# [37] = system: P388/ADR leukemia
# [38] = system: RPMI-8226 leukemia
# [39] = system: RXF 393 renal
# [40] = system: SF-268 CNS
# [41] = system: SF-295 CNS
# [42] = system: SF-539 CNS
# [43] = system: SK-MEL-2 melanoma
# [44] = system: SK-MEL-28 melanoma
# [45] = system: SK-MEL-5 melanoma
# [46] = system: SK-OV-3 ovarian
# [47] = system: SN12C renal
# [48] = system: SN12K1 renal
# [49] = system: SNB-19 CNS
# [50] = system: SNB-75 CNS
# [51] = system: SNB-78 CNS
# [52] = system: SW-620 colon
# [53] = system: U251 CNS
# [54] = system: UACC-257 melanoma
# [55] = system: UACC-62 melanoma
# [56] = system: UO-31 renal
# [57] = system: XF 498 CNS
# [58] = system: 786-0 renal
# [59] = system: ACHN renal
# [60] = system: M14 melanoma
# [61] = system: SR leukemia
# [62] = system: TK-10 renal
# [63] = system: LXFL 529 NSCLC
structure (smiles),measurement,setting,value
CN(C)CCNC(=O)c1cccc2c1C(=O)c1ccccc1C2=O,TGI,[1],> 100 µM
same,TGI,[2],> 100 µM
same,TGI,[3],> 100 µM
same,TGI,[4],98.9 µM
same,TGI,[5],34.2 µM
same,TGI,[6],> 77.6 µM
same,TGI,[7],32.8 µM
same,TGI,[8],56.6 µM
same,TGI,[9],> 100 µM
same,TGI,[10],> 91.6 µM
same,TGI,[11],66.5 µM
same,TGI,[12],> 84.2 µM
same,TGI,[13],57.8 µM
same,TGI,[14],> 100 µM
same,TGI,[15],> 31.6 µM
same,TGI,[16],> 73.7 µM
same,TGI,[17],> 86.6 µM
same,TGI,[18],> 76.5 µM
same,TGI,[19],54.5 µM
same,TGI,[20],> 100 µM
same,TGI,[21],77 µM
same,TGI,[22],> 75.1 µM
same,TGI,[23],41.7 µM
same,TGI,[24],28.1 µM
same,TGI,[25],> 79 µM
same,TGI,[26],> 71.7 µM
same,TGI,[27],> 100 µM
same,TGI,[28],50 µM
same,TGI,[29],85.8 µM
same,TGI,[30],69.1 µM
same,TGI,[31],75.5 µM
same,TGI,[32],52.4 µM
same,TGI,[33],88.8 µM
same,TGI,[34],> 100 µM
same,TGI,[35],88.3 µM
same,TGI,[36],43.9 µM
same,TGI,[37],48.4 µM
same,TGI,[38],> 100 µM
same,TGI,[39],> 100 µM
same,TGI,[40],> 100 µM
same,TGI,[41],> 100 µM
same,TGI,[42],> 100 µM
same,TGI,[43],> 90.5 µM
same,TGI,[44],> 100 µM
same,TGI,[45],40.2 µM
same,TGI,[46],> 100 µM
same,TGI,[47],> 100 µM
same,TGI,[48],> 100 µM
same,TGI,[49],> 100 µM
same,TGI,[50],> 100 µM
same,TGI,[51],> 86.6 µM
same,TGI,[52],> 91.3 µM
same,TGI,[53],> 100 µM
same,TGI,[54],54.4 µM
same,TGI,[55],47.9 µM
same,TGI,[56],> 100 µM
same,TGI,[57],> 100 µM
CN(C)CCCNc1ccnc2c([N+](=O)[O-])cccc12,TGI,[58],> 100 µM
same,TGI,[2],75.5 µM
same,TGI,[59],> 100 µM
same,TGI,[3],> 100 µM
same,TGI,[4],96 µM
same,TGI,[5],5.34 µM
same,TGI,[7],5.56 µM
same,TGI,[8],32.8 µM
same,TGI,[9],36 µM
same,TGI,[10],27.1 µM
same,TGI,[11],39.1 µM
same,TGI,[12],43.7 µM
same,TGI,[15],82.5 µM
same,TGI,[17],12.1 µM
same,TGI,[20],> 100 µM
same,TGI,[21],16.7 µM
same,TGI,[22],39 µM
same,TGI,[60],> 100 µM
same,TGI,[23],5.82 µM
same,TGI,[24],8.61 µM
same,TGI,[26],66.7 µM
same,TGI,[27],> 100 µM
same,TGI,[28],31.3 µM
same,TGI,[29],39.2 µM
same,TGI,[30],38.2 µM
same,TGI,[32],> 100 µM
same,TGI,[33],28.5 µM
same,TGI,[35],61.6 µM
same,TGI,[38],69.4 µM
same,TGI,[40],67.4 µM
same,TGI,[41],42.2 µM
same,TGI,[42],44.5 µM
same,TGI,[44],> 100 µM
same,TGI,[47],28.8 µM
same,TGI,[49],54.5 µM
same,TGI,[51],> 100 µM
same,TGI,[61],96.4 µM
same,TGI,[52],37.1 µM
same,TGI,[62],> 100 µM
same,TGI,[53],> 100 µM
same,TGI,[54],30.9 µM
same,TGI,[56],> 100 µM
same,TGI,[57],28.2 µM
O=C1NC(c2ccccc2)(c2ccccc2)C(=O)N1CCCCCCN1C(=O)NC(c2ccccc2)(c2ccccc2)C1=O,TGI,[58],49.3 µM
same,TGI,[1],> 100 µM
same,TGI,[2],> 100 µM
same,TGI,[59],> 100 µM
same,TGI,[3],> 100 µM
same,TGI,[4],> 100 µM
same,TGI,[5],> 100 µM
same,TGI,[6],> 100 µM
same,TGI,[7],> 100 µM
same,TGI,[8],> 100 µM
same,TGI,[9],> 100 µM
same,TGI,[10],> 100 µM
same,TGI,[12],> 100 µM
same,TGI,[13],> 100 µM
same,TGI,[14],> 100 µM
same,TGI,[15],> 100 µM
same,TGI,[16],19.9 µM
same,TGI,[17],> 100 µM
same,TGI,[18],> 100 µM
same,TGI,[19],> 100 µM
same,TGI,[20],> 100 µM
same,TGI,[21],> 100 µM
same,TGI,[22],> 100 µM
same,TGI,[63],> 100 µM
same,TGI,[60],> 100 µM
same,TGI,[23],> 100 µM
same,TGI,[24],85.2 µM
same,TGI,[26],> 100 µM
same,TGI,[27],> 100 µM
same,TGI,[28],91.5 µM
same,TGI,[29],> 100 µM
same,TGI,[30],84.2 µM
same,TGI,[32],> 100 µM
same,TGI,[33],27.6 µM
same,TGI,[34],> 100 µM
same,TGI,[35],> 100 µM
same,TGI,[38],> 100 µM
same,TGI,[40],> 100 µM
same,TGI,[41],81.3 µM
same,TGI,[42],81.3 µM
same,TGI,[43],66.2 µM
same,TGI,[44],89.2 µM
same,TGI,[45],57.9 µM
same,TGI,[46],77.2 µM
same,TGI,[47],> 100 µM
same,TGI,[49],72.1 µM
same,TGI,[50],19.6 µM
same,TGI,[51],> 100 µM
same,TGI,[52],> 100 µM
same,TGI,[62],77 µM
same,TGI,[53],> 100 µM
same,TGI,[54],> 100 µM
same,TGI,[55],> 100 µM
same,TGI,[56],> 100 µM
same,TGI,[57],30.9 µM
